Reference: patent US11472811B2, “Pyrazolotriazolopyrimidine derivatives as A2A receptor antagonist” (BEIGENE, LTD., priority 2018, dated 2022)

What follows are compounds tested against human A2A receptor (A2AR) (Homo sapiens (Human), UniProt P29274) (assay: Luciferase reporter assay (HEK293-A2AR-luc2p/CRE/Hygro cells)). Details: 3 nM CGS21680, 5 h incubation.
Format: cell-based
Procedure: HEK293 cells were maintained in Dulbecco's modified Eagle's medium (DMEM, Gibco) supplemented with 10% fetal bovine serum (FBS, Thermo Scientific), 100 units/mL penicillin (Gibco), and 0.1 mg/mL streptomycin (Gibco) in a humidified 37° C. environment with 5% CO2. Plasmid encoding wild-type human A2A receptor (A2AR) (in pcDNA3.1) was synthesized by Genscript (Nanjing, China). Transfection of the plasmids was performed in 6-well plates with 4×10^5 cells using Lipofectamin 2000 (ThermoFisher Scientific) according to the instruction of the manufacturer. Cell clones that stably express A2AR were established and maintained in the same complete medium as the HEK293 cells in addition of G-418 (Gibico). Expression level of A2AR in each single cell clone was determined using immunoblotting and FACS method. HEK293-A2AR stable cells were then transfected with pGL4.29[luc2P/CRE/Hygro] (Promega) luciferase reporter plasmid for establishing the HEK293-A2AR-luc2p/CRE/Hygro stable cell line.
HEK293-A2AR-luc2p/CRE/Hygro cells were seeded at a density of 5,000 cells/well in DMEM with 1% FBS and 1 U/mL adenosine deaminase (ADA) (Sigma). After 18 h, the cells were treated with 3 nM CGS21680 plus a series dilution of A2AR antagonist, the compounds disclosed herein at the concentration of 0.1˜10000 nM, prepared in DMEM with 1% FBS. After 5 h incubation, the luciferase activity in cells were measured using the Bright-Glo Luciferase Assay System (Promega) according to manufacturer's instructions. The luminescence signal was measured using a PHERAstar FS plate reader (BMG Labtech). […] Maximal luminescence intensity was determined in the presence of 3 nM CGS21680 and was set as 100%. The IC50 value was calculated from a dose dependent inhibition curve across the range of compound concentrations.

human A2A receptor (A2AR), sequence (P29274 whole entry): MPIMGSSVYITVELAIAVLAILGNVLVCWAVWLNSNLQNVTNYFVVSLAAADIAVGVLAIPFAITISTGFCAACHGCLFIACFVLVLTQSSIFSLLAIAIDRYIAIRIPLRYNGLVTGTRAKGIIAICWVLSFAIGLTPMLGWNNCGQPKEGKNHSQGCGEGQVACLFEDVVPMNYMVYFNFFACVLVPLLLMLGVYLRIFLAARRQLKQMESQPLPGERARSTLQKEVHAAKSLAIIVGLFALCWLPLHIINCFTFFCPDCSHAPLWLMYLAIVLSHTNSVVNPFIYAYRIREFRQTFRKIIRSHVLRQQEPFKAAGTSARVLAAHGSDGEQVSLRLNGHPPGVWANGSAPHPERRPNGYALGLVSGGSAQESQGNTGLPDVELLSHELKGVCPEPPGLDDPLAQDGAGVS

SMILES | IC50 [nM]
CC(C(=O)NCc1cccc(F)n1)(c1ccccc1)n1ncc2c1nc(N)n1nc(-c3ccco3)nc21 (stereo not drawn) [Example 116, 2-(5-amino-2-(furan-2-yl)-7H-pyrazolo[4,3-e][1,2,4]triazolo[1,5-c]pyrimidin-7-yl)-N-((6-fluoropyridin-2-yl)methyl)-2-phenylpropanamide] | 2.2
CC(C(=O)NCc1ccncc1)(c1ccccc1)n1ncc2c1nc(N)n1nc(-c3ccco3)nc21 (stereo not drawn) [Example 83, 2-(5-amino-2-(furan-2-yl)-7H-pyrazolo[4,3-e][1,2,4]triazolo[1,5-c]pyrimidin-7-yl)-2-phenyl-N-(pyridin-4-ylmethyl)propenamide] | 11.2
Nc1nc2c(cnn2C(C(=O)NCCc2ccccc2)c2ccccc2)c2nc(-c3ccco3)nn12 (stereo not drawn) [Example 17, 2-(5-amino-2-(furan-2-yl)-7H-pyrazolo[4,3-e][1,2,4]triazolo[1,5-c]pyrimidin-7-yl)-N-phenethyl-2-phenylacetamide] | 3
CC(C(=O)NC[C@H]1CCCO1)(c1ccccc1)n1ncc2c1nc(N)n1nc(-c3ccco3)nc21 (stereo partly drawn) [Example 50, 2-(5-amino-2-(furan-2-yl)-7H-pyrazolo[4,3-e][1,2,4]triazolo[1,5-c]pyrimidin-7-yl)-2-phenyl-N—(((R)-tetrahydrofuran-2-yl)methyl)propanamide] | 5.3
C[C@](C(=O)NCc1ncccc1C(F)(F)F)(c1ccccc1)n1ncc2c1nc(N)n1nc(-c3ccco3)nc21 [Example 141B, (R)-2-(5-amino-2-(furan-2-yl)-7H-pyrazolo[4,3-e][1,2,4]triazolo[1,5-c]pyrimidin-7-yl)-2-phenyl-N-((3-(trifluoromethyl)pyridin-2-yl)methyl)propanamide] | 1.1
C[C@](C(=O)NC1CCC(=O)CC1)(c1ccccc1)n1ncc2c1nc(N)n1nc(-c3ccco3)nc21 [Example 128B, (R)-2-(5-amino-2-(furan-2-yl)-7H-pyrazolo[4,3-e][1,2,4]triazolo[1,5-c]pyrimidin-7-yl)-N-(4-oxocyclohexyl)-2-phenylpropanamide] | 7.6
CC(C(=O)N[C@H]1CCCC[C@@H]1O)(c1ccccc1)n1ncc2c1nc(N)n1nc(-c3ccco3)nc21 (stereo partly drawn) [Example 57, 2-(5-amino-2-(furan-2-yl)-7H-pyrazolo[4,3-e][1,2,4]triazolo[1,5-c]pyrimidin-7-yl)-N-((1S,2S)-2-hydroxycyclohexyl)-2-phenylpropanamide] | 29
Cc1cccc(CNC(=O)C(C)(c2ccccc2)n2ncc3c2nc(N)n2nc(-c4ccco4)nc32)n1 (stereo not drawn) [Example 108, 2-(5-amino-2-(furan-2-yl)-7H-pyrazolo[4,3-e][1,2,4]triazolo[1,5-c]pyrimidin-7-yl)-N-((6-methylpyridin-2-yl)methyl)-2-phenylpropanamide] | 3
COc1cccc(C(C)(C(=O)NCC2(O)COC2)n2ncc3c2nc(N)n2nc(-c4ccco4)nc32)c1 (stereo not drawn) [Example 137, 2-(5-amino-2-(furan-2-yl)-7H-pyrazolo[4,3-e][1,2,4]triazolo[1,5-c]pyrimidin-7-yl)-N-((3-hydroxyoxetan-3-yl)methyl)-2-(3-methoxyphenyl)propanamide] | 13
Cc1ccnc(CNC(=O)[C@@](C)(c2ccccc2)n2ncc3c2nc(N)n2nc(-c4ccco4)nc32)c1 [Example 110B, (R)-2-(5-amino-2-(furan-2-yl)-7H-pyrazolo[4,3-e][1,2,4]triazolo[1,5-c]pyrimidin-7-yl)-N-((4-methylpyridin-2-yl)methyl)-2-phenylpropanamide] | 2.9
CC(C(=O)NCc1ccccn1)(c1ccccc1)n1ncc2c1nc(N)n1nc(-c3ccco3)nc21 (stereo not drawn) [Example 66, 2-(5-amino-2-(furan-2-yl)-7H-pyrazolo[4,3-e][1,2,4]triazolo[1,5-c]pyrimidin-7-yl)-2-phenyl-N-(pyridin-2-ylmethyl)propanamide] | 6.2
CC(C(=O)N[C@H]1CCC[C@@H](O)C1)(c1ccccc1)n1ncc2c1nc(N)n1nc(-c3ccco3)nc21 (stereo partly drawn) [Example 123, 2-(5-amino-2-(furan-2-yl)-7H-pyrazolo[4,3-e][1,2,4]triazolo[1,5-c]pyrimidin-7-yl)-N-((1S,3R)-3-hydroxycyclohexyl)-2-phenylpropanamide] | 8.5
Nc1nc2c(cnn2C(C(=O)N[C@@H]2CCC[C@@H]2O)c2ccccc2)c2nc(-c3ccco3)nn12 (stereo partly drawn) [Example 90, 2-(5-amino-2-(furan-2-yl)-7H-pyrazolo[4,3-e][1,2,4]triazolo[1,5-c]pyrimidin-7-yl)-N-((1R,2S)-2-hydroxycyclopentyl)-2-phenylacetamide] | 6.9
C[C@](C(=O)N[C@H]1COC[C@@H]1O)(c1ccccc1)n1ncc2c1nc(N)n1nc(-c3ccco3)nc21 [Example 106B, (R)-2-(5-amino-2-(furan-2-yl)-7H-pyrazolo[4,3-e][1,2,4]triazolo[1,5-c]pyrimidin-7-yl)-N-((3S,4R)-4-hydroxytetrahydrofuran-3-yl)-2-phenylpropanamide] | 41.7
CC(C(=O)N[C@@H]1CCC[C@@H]1O)(c1ccccc1)n1ncc2c1nc(N)n1nc(-c3ccco3)nc21 (stereo partly drawn) [Example 48, 2-(5-amino-2-(furan-2-yl)-7H-pyrazolo[4,3-e][1,2,4]triazolo[1,5-c]pyrimidin-7-yl)-N-((1R,2S)-2-hydroxycyclopentyl)-2-phenylpropanamide] | 2.9
CC1(O)CCC(NC(=O)[C@](C)(c2ccccc2)n2ncc3c2nc(N)n2nc(-c4ccco4)nc32)CC1 (stereo in doubt) [Example 33A, (S)-2-(5-amino-2-(furan-2-yl)-7H-pyrazolo[4,3-e][1,2,4]triazolo[1,5-c]pyrimidin-7-yl)-(trans)-N-(4-hydroxy-4-methylcyclohexyl)-2-phenylpropanamide] | 13.2
CC(C(=O)NC1CCNCC1)(c1ccccc1)n1ncc2c1nc(N)n1nc(-c3ccco3)nc21 (stereo not drawn) [Example 101, 2-(5-amino-2-(furan-2-yl)-7H-pyrazolo[4,3-e][1,2,4]triazolo[1,5-c]pyrimidin-7-yl)-2-phenyl-N-(piperidin-4-yl)propanamide] | 35.1
COc1ccnc(CNC(=O)[C@@](C)(c2ccccc2)n2ncc3c2nc(N)n2nc(-c4ccco4)nc32)c1 [Example 114B, (R)-2-(5-amino-2-(furan-2-yl)-7H-pyrazolo[4,3-e][1,2,4]triazolo[1,5-c]pyrimidin-7-yl)-N-((4-methoxypyridin-2-yl)methyl)-2-phenylpropanamide] | 4.6
CC(C(=O)N[C@H]1CC[C@H](O)C1)(c1ccccc1)n1ncc2c1nc(N)n1nc(-c3ccco3)nc21 (stereo partly drawn) [Example 95, 2-(5-amino-2-(furan-2-yl)-7H-pyrazolo[4,3-e][1,2,4]triazolo[1,5-c]pyrimidin-7-yl)-N-((1S,3S)-3-hydroxycyclopentyl)-2-phenylpropanamide] | 9.5
C[C@](C(=O)NCCC1CCC(O)CC1)(c1ccccc1)n1ncc2c1nc(N)n1nc(-c3ccco3)nc21 (stereo partly drawn) [Example 149B, (R)-2-(5-amino-2-(furan-2-yl)-7H-pyrazolo[4,3-e][1,2,4]triazolo[1,5-c]pyrimidin-7-yl)-N-(2-(4-hydroxycyclohexyl)ethyl)-2-phenylpropanamide] | 1.7
CCOc1ccccc1CNC(=O)C(c1ccccc1)n1ncc2c1nc(N)n1nc(-c3ccco3)nc21 (stereo not drawn) [Example 6, 2-(5-amino-2-(furan-2-yl)-7H-pyrazolo[4,3-e][1,2,4]triazolo[1,5-c]pyrimidin-7-yl)-N-(2-triethoxybenzyl)-2-phenylacetamide] | 0.9
